Active and inactive are the calls of the source.
Assays:
cells [1] = experiment: cells
[2] = molecular target: T1, Corticotropin-releasing factor receptor 2/Corticotropin-releasing factor-binding protein (Homo sapiens, UniProt P24387+Q13324); experiment: activators of CRF receptor 2 with binding protein – uHTS hits, confirmation (AID 602473); type: functional; conditions: read-out: EC50_Mean
T1 sequence (Q13324 whole entry): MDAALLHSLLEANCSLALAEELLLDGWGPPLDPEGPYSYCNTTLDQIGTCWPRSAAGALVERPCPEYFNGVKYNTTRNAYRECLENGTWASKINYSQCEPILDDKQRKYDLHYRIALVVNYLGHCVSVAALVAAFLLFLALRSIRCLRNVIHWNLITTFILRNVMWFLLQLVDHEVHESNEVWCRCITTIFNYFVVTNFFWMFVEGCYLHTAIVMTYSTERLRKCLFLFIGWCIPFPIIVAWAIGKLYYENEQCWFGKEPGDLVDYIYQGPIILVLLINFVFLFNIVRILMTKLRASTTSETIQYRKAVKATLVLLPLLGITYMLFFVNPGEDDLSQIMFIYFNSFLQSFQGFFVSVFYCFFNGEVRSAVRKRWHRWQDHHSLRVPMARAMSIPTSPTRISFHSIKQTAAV
T1 sequence (P24387 whole entry): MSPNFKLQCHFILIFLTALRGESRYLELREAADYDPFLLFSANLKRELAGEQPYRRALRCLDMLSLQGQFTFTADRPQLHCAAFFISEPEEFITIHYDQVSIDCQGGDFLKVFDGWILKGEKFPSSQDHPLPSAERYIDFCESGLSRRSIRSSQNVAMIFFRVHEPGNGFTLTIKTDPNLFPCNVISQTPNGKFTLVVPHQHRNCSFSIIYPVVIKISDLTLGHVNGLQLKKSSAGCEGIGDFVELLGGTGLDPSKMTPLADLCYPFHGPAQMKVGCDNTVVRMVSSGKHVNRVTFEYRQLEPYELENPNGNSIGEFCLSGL

[3] = HEp-2 cell cytotoxicity, dose response, cytotoxicity control for RSV inhibitor project, HTS (AID 2410); type: functional; conditions: human respiratory syncytial virus
[4] = molecular target: Glyceraldehyde-3-phosphate dehydrogenase (Homo sapiens, UniProt P04406)
[5] = cytotoxicity in HEK-293T cells, dose response, cytotoxicity control for BCR NF-kB inhibitor project, luminescence, B-cell screen hits (AID 489021); type: functional, cell-based;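 further: HEK-293T cells carrying an NF-kB luciferase reporter; cells exposed to compound for about 14 hours before viability readout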
[6] = Luminescence Cell-Based Dose Retest to Confirm Inhibitors of Cancer Stem Cells. [Related pubchem assays (depositor defined):AID2717, AID2721]; type: functional; conditions: Homo sapiens
[7] = molecular target: Peroxisome proliferator-activated receptor gamma/Nuclear receptor coactivator 1 (Homo sapiens, UniProt P37231); type: functional;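 further: agonist potency as compounds enhance coactivator SRC-1 recruitment to PPARgamma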
[8] = molecular target: Peroxisome proliferator-activated receptor gamma/Nuclear receptor coactivator 2 (Homo sapiens, UniProt P37231); type: functional;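 further: agonist potency for raising coactivator recruitment to the receptor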
Protein skinhead-1 = molecular target: T2, Protein skinhead-1 (Caenorhabditis elegans, UniProt P34707); type: functional
T2 sequence (P34707 whole entry): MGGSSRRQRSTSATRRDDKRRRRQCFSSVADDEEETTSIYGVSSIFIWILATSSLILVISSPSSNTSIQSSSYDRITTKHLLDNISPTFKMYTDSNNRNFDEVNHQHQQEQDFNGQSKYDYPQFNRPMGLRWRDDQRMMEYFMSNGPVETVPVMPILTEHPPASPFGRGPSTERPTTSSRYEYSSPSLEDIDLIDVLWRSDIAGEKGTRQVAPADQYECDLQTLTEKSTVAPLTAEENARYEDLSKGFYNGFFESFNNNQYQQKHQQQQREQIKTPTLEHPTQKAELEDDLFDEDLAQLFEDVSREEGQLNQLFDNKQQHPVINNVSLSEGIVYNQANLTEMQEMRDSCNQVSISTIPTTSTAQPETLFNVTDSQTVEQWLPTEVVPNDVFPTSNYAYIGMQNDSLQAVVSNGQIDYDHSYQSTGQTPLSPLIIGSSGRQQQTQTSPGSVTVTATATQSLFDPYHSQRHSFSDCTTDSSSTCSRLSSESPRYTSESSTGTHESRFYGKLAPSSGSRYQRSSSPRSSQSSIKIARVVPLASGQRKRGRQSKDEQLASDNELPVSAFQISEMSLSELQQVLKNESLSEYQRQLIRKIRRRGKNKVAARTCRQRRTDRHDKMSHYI

[9] = molecular target: Peroxisome proliferator-activated receptor gamma/Nuclear receptor coactivator 3 (Homo sapiens, UniProt P37231); type: functional;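 further: agonist potency for raising coactivator recruitment to the receptor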
[10] = molecular target: T3, Neuropeptide Y receptor type 1 (Homo sapiens, UniProt P25929); experiment: Fluorescence-based counterscreen for agonists of NPY-Y2: cell-based high-throughput dose response assay for agonists of NPY-Y1.; type: functional
T3 sequence (P25929 whole entry): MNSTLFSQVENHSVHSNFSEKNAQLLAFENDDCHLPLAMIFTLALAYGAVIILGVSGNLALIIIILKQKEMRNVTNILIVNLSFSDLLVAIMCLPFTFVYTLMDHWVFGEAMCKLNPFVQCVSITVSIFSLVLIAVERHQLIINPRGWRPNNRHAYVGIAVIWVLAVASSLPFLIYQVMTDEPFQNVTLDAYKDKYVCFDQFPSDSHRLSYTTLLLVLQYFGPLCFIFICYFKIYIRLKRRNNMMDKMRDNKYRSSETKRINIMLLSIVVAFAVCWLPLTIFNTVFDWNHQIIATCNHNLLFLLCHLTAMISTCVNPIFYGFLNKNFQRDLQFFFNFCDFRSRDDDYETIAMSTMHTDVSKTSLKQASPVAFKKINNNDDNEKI

HEK293 [11] = experiment: Fluorescence-based counterscreen for potentiators or agonists of NPY-Y2: cell-based high-throughput dose response assay to identify inhibitors of cyclic nucleotide gated ion channel (CNGC) activity. In this assay, the parental HEK293 cell line transfected with a cyclic-nucleotide gated ion channel (CNGC)-based cAMP sensor is used to measure inhibition of isoproterenol-induced CNGC activity by test compound.; type: functional; conditions: Homo sapiens
[12] = molecular target: T4, Neuropeptide Y receptor type 2 (Homo sapiens, UniProt P49146); experiment: Fluorescence-based cell-based high-throughput dose response assay for agonists of NPY-Y2. [Related pubchem assays: 1703 (Screening assay (CNGC inhibitors).), 1359 (Screening assay (NPY-Y2 potentiators or agonists).), 1304 (Screening assay (NPY-Y1 potentiators or agonists).), 1710 (Screening assay (NPY-Y2 agonists).), 1791 (Summary AID.)]; type: functional
T4 sequence (P49146 whole entry): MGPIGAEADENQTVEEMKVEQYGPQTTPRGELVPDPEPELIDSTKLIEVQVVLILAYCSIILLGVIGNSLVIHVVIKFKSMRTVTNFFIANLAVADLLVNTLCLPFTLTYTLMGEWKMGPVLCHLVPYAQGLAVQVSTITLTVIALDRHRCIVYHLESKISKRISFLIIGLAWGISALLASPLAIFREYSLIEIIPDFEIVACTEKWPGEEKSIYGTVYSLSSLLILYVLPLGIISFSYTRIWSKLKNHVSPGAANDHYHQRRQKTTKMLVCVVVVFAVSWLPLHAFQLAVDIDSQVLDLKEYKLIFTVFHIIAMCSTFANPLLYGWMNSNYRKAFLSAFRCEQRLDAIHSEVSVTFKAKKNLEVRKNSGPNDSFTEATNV

[13] = inhibitors of SNCA 5'UTR-driven reporter translation, confirmation, H4 neuroglioma cells, luminescence (AID 1988); type: functional, cell-based
[14] = inhibitors of firefly luciferase expression or activity, dose response, H4 neuroglioma cells, luminescence (AID 1990); type: functional, cell-based
HEK293 [15] = experiment: inhibitors of LMP1-driven NF-kB reporter, dose response, cell-based, HEK293, luciferase, cherry-pick (AID 588343); type: functional; conditions: Homo sapiens
[16] = Luminescence Cell-Based Dose Response HTS to Identify Inhibitors of 5'UTR Stem-Loop Driven Prion Protein mRNA Translation in H4 Neuroglioblastoma Cells. [Related pubchem assays: 1827 (Project Summary), 1813 (Primary HTS)]; type: functional
cells [17] = type: functional, cell-based
[18] = luciferase reporter signal reduction – luminescence, H4-C neuroglioblastoma cells, dose response (AID 2458); type: functional, cell-based;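 further: H4 neuroglioblastoma cells stably carrying a luciferase reporter gene fusion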
[19] = inhibitors of SNCA 5'UTR-driven translation, confirmation, luminescence, H4 neuroglioblastoma cells, dose confirmation (AID 2454); type: functional, cell-based;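 further: H4 neuroglioblastoma cells carrying an alpha-synuclein 5'UTR luciferase reporter; potency for inhibition of the luciferase signal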
H4 = experiment: Luminescence Cell-Based Dose Response HTS to Identify Activators of 5'UTR Stem-Loop Driven Prion Protein mRNA Translation in H4 Neuroglioblastoma Cells. [Related pubchem assays: 1829 (Project Summary), 1814 (Primary HTS)]; type: functional; conditions: Homo sapiens
Vero [20] = experiment: cells; type: functional; conditions: Chlorocebus sabaeus
Vero [21] = experiment: cells; type: functional, cell-based; conditions: Chlorocebus sabaeus
[22] = Luminescence Cell-Based Dose Response HTS to Identify Activators of Luciferase Translation or Activity in H4 […] Cells. [Related pubchem assays: 1829 (Project Summary), 1814 (Primary HTS)]; type: functional

Sequence of Glyceraldehyde-3-phosphate dehydrogenase (P04406 whole entry): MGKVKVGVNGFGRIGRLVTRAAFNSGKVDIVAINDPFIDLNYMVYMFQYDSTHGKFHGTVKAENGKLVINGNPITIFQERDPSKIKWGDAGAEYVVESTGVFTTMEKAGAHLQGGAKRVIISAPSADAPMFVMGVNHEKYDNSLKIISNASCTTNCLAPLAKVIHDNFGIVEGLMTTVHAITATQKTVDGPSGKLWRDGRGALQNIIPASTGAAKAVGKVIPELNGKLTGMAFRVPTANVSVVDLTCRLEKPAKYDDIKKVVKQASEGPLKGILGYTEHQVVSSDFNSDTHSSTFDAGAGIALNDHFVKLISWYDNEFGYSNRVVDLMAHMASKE
Sequence of Peroxisome proliferator-activated receptor gamma/Nuclear receptor coactivator 1 (P37231 whole entry): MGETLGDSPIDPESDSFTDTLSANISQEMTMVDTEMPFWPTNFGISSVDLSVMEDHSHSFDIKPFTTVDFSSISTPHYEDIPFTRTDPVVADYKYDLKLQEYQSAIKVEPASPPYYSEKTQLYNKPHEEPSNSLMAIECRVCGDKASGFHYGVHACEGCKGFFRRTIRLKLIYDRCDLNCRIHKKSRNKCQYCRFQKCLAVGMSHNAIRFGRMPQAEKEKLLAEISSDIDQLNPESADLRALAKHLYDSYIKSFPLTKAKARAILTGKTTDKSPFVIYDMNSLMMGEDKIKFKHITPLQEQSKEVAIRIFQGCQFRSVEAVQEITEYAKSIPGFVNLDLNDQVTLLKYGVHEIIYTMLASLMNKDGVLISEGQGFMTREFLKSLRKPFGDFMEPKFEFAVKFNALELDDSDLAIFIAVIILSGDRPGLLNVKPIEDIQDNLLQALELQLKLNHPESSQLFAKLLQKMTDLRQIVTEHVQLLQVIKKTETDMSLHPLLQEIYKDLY
Sequence of Peroxisome proliferator-activated receptor gamma/Nuclear receptor coactivator 1 (Q15788 whole entry, further chain): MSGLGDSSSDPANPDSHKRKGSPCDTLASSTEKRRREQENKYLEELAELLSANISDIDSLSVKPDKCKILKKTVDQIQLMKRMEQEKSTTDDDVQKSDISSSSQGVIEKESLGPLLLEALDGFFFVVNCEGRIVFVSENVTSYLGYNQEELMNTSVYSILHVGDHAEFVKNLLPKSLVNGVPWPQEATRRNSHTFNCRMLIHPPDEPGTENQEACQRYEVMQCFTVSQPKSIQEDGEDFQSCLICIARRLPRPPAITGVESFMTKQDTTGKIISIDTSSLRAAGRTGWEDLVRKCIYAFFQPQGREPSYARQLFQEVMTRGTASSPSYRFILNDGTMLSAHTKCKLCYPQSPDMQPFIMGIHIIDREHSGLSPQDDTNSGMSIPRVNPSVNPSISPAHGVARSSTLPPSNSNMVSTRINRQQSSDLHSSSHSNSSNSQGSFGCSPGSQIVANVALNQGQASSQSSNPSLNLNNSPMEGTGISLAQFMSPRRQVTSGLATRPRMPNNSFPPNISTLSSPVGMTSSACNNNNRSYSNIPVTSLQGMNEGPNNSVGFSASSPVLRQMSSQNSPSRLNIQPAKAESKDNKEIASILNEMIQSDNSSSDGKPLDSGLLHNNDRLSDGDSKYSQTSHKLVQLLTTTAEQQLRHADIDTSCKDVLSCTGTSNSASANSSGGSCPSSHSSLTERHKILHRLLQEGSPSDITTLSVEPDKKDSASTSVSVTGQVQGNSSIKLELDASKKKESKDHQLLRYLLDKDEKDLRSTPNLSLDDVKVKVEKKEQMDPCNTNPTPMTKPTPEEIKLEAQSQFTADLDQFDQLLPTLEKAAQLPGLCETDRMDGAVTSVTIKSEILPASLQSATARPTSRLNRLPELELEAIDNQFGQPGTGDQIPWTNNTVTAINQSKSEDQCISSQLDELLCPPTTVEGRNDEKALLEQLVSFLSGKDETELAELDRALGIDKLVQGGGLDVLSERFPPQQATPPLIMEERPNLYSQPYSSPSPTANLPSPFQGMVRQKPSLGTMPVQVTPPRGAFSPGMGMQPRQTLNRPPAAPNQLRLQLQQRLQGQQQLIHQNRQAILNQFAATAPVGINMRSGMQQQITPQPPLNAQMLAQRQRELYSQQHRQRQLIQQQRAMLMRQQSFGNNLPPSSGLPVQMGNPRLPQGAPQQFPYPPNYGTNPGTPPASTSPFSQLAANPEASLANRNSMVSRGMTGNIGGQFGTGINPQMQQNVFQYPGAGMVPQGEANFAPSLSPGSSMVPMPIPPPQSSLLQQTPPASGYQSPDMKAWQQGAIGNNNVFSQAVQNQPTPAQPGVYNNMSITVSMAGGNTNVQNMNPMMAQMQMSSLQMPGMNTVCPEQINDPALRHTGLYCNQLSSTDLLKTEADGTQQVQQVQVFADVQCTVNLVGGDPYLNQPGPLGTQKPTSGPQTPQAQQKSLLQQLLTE
Sequence of Peroxisome proliferator-activated receptor gamma/Nuclear receptor coactivator 3 (P37231 whole entry): as the sequence (P37231 whole entry) above
Sequence of Peroxisome proliferator-activated receptor gamma/Nuclear receptor coactivator 3 (Q9Y6Q9 whole entry, further chain): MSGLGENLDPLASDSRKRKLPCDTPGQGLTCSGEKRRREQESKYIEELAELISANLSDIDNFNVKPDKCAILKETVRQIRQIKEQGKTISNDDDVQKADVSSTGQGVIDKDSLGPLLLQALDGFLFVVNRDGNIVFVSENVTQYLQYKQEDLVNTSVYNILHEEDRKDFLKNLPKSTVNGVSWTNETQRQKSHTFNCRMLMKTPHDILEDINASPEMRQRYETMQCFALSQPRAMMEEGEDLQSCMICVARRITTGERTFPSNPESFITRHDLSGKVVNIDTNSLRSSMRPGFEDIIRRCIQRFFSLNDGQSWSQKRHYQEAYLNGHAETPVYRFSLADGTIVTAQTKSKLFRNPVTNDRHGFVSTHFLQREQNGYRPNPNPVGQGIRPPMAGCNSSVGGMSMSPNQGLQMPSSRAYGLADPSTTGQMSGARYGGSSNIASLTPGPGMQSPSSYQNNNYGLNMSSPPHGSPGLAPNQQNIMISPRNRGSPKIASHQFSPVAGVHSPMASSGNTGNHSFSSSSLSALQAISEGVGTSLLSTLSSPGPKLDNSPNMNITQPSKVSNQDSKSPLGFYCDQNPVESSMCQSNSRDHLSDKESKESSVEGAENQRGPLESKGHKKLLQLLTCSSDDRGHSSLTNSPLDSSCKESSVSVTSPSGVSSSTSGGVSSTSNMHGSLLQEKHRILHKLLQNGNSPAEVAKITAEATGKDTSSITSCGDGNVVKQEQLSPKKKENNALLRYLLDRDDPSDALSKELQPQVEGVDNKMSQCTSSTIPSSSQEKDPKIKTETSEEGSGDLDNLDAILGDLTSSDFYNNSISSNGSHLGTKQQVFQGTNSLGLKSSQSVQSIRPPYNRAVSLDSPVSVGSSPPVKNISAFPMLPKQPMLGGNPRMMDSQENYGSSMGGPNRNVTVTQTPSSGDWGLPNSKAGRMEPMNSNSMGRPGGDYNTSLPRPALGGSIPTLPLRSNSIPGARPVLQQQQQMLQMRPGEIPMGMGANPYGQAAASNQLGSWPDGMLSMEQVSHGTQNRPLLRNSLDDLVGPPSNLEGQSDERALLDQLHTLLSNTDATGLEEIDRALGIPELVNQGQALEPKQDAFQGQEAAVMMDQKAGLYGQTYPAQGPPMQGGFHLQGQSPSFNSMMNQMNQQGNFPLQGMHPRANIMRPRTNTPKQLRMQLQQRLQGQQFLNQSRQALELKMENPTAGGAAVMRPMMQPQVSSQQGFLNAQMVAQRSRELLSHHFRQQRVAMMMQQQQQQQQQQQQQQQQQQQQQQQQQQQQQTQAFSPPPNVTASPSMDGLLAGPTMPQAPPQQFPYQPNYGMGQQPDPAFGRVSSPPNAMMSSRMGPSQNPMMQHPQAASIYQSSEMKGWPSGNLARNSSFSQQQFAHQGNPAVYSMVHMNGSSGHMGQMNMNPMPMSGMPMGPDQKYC

**Q.** Which results are given for `CCOC(=O)c1ccc(NC(=S)N2CCSC2c2ccc(Br)cc2)cc1` (stereo not given)?
**A.** IC50 (cells [1]): 11 µM (active); EC50 [2]: 4.38 µM (active); CC50 [3]: 14 µM (active)

**Q.** With `CCC(C(=O)Nc1ccc(O)c(C(=O)O)c1)c1ccccc1` (stereo not given) as the compound, how does the IC50 [4] read?
**A.** Its IC50 is > 100 µM (not active).

**Q.** For `Cc1cc(C)cc(NC(=O)Nc2ccc(NC(=O)c3ccccc3O)cc2)c1`, which IC50 [5] is on record?
**A.** Its IC50 is > 80 µM (inactive).

**Q.** And the AC50 [6]?
**A.** Its AC50 is 0.167 µM (active).

**Q.** What does the source list for `CSC1=NC(C)(C)CC2(CC(c3ccccc3)Oc3cc(O)ccc32)N1` (stereo not given)?
**A.** EC50 [7]: > 79.4 µM (not active); EC50 [8]: > 79.4 µM (not active); IC50 (Protein skinhead-1): > 100 µM (inactive); EC50 [9]: > 79.4 µM (not active)

**Q.** For `CC(SC(=S)N1CCCC1)C(=O)O` (stereo not given), which EC50 [10] is on record?
**A.** The EC50 was > 35.4 µM (not active).

**Q.** And the EC50 (HEK293 [11])?
**A.** Its EC50 is > 35.4 µM (not active).

**Q.** And the EC50 [12]?
**A.** The EC50 was > 35.4 µM (not active).

**Q.** Which results are given for `CCOC(=O)CNC(=O)CSc1nnc(NC(=O)c2ccc(C)cc2)s1`?
**A.** EC50 [13]: 7.31 µM (active); IC50 [5]: > 80 µM (inactive); EC50 [14]: 9.66 µM (active); AC50 (HEK293 [15]): 1.65 µM (active); EC50 [16]: 11 µM (active)

**Q.** For `Cn1c2ccc(Br)cc2c2nnc(SCC(=O)O)nc21`, which EC50 [13] is on record?
**A.** The EC50 was 29.3 µM (active).

**Q.** And the EC50 (cells [17])?
**A.** The EC50 was > 12 µM (not active).

**Q.** And the EC50 [18]?
**A.** The EC50 was > 12 µM (not active).

**Q.** What about the EC50 [14] of the same compound?
**A.** The EC50 was > 60 µM (not active).

**Q.** What about the EC50 [19] of the same compound?
**A.** The EC50 was 9.55 µM (active).

**Q.** And the EC50 [16]?
**A.** The EC50 was < 0.1 µM (active).

**Q.** What does the source list for `CCN(CC)C(=O)N1c2ccccc2C=Cc2ccccc21`?
**A.** EC50 (H4): > 120 µM (not active); IC50 (cells [1]): 2.02 µM (active); CC50 (Vero [20]): > 25 µM (active); IC50 (Vero [21]): 4.41 µM (active); EC50 [22]: 30 µM (active); CC50 [3]: 9.46 µM (active)
